The test system of assay [1] is symmetric dimethylation of arginine (SDMA) of PRMT5 substrates in MCF-7 cells. The experiment in a line: PRMT5 Cell Target Engagement (TE) Assay. Format: cell-based. The settings on record: Homo sapiens, MCF7, 72 h, 3 days treatment, SDMA high content imaging. The gist of the method: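 MCF-7 cells treated 3 days at 37 °C with a ten-point 1:3 titration from 10000 nM. Fixed cells immunostained with anti-SDMA and Alexa488 secondary; nuclear fluorescence quantified by high-content imaging versus DMSO wells, with IC50 from a 4-parameter fit.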

Assay [2] addresses T1, Full-length (FL)-PRMT5-MEP50 enzyme complex (Homo sapiens, UniProt O14744).
T1 construct: Full-length (FL)-PRMT5-MEP50 enzyme complex (recombinant proteins from baculovirus-transfected Sf21 cells: FL-PRMT5; MW=73837 kDa and FL-MEP50; MW=38614); made in house; host or cells: baculovirus-transfected Sf21 cells
The assay can be described thus: PRMT5-MEP50 Enzyme Methylation Assay (Version A). Format: biochemical. In short, it runs like this: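 Compound was pre-incubated with enzyme for 60 min, then reacted 150 min at 37° C. at final 1.0 nM PRMT5-MEP50, 15 μM SAM and 75 nM biotinylated H4R3(Me1) peptide, in 50 mM Bicine pH 8.0 with 1% DMSO. SAMDI mass-spectrometric readout of Me1→Me2 conversion. EC50 from 4- or 7-parameter regression.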

The mark [3] stands for this setting: second value of 7 parameter biphasic fit, read-out: Enzyme Methylation Assay Version A (EC50 2).
[4] abbreviates: single EC50 = 4 parameter single site sigmoidal fit, EC50 1 = first value of 7 parameter biphasic fit, read-out: Enzyme Methylation Assay Version A (EC50 or EC50 1).

Like-named read-outs stand apart in the source and are kept apart here.

T1 sequence (O14744 whole entry): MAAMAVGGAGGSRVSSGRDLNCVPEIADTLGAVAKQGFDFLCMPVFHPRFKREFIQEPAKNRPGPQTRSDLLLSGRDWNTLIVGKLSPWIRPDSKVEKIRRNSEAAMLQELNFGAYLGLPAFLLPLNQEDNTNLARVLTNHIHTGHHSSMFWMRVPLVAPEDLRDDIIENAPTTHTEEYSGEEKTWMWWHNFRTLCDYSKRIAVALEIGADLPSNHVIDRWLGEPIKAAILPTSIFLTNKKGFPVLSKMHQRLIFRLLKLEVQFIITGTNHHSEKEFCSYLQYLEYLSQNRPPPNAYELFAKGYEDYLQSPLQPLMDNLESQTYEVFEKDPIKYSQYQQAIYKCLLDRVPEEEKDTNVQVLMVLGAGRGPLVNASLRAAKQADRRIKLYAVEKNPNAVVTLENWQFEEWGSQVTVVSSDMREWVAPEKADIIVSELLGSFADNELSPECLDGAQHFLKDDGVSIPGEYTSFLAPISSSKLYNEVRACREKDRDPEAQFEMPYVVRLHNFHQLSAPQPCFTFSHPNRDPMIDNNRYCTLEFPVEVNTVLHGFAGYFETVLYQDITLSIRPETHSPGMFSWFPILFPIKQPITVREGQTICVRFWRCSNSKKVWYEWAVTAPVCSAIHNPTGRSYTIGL
T1 sequence (Q9BQA1 whole entry partner): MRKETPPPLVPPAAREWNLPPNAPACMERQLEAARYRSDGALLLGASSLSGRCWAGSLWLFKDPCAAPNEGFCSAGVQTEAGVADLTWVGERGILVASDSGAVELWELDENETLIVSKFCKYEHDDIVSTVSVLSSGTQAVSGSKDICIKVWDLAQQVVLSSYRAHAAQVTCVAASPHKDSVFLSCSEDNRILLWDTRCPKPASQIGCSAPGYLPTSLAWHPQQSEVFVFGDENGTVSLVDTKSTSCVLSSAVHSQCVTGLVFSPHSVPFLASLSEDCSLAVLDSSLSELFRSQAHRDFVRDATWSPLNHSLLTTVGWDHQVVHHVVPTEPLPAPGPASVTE

Consider `CC(C)Oc1nc(Br)cn2cc(C(=O)N3CC[C@]4(Cc5ccccc5CN4)[C@H](O)C3)nc12` [Example 11, {6-bromo-8-[(propan-2-yl)oxy]imidazo[1,2-a]pyrazin-2-yl}((3R,3’R)-3′-hydroxy-1,4-dihydro-1′H,2H-spiro[isoquinoline-3,4′-piperidin]-1′-yl)methanone], for which the EC50 (commonly the midpoint of the concentration-response curve) stood at 4.2 nM in assay [1], 88.6 nM in assay [2] (setting [3]) and 0.495 nM in assay [2] (setting [4]).
As to `O=C(c1cn2cc(Br)nc(OC3COC3)c2n1)N1CC[C@]2(Cc3ccccc3CN2)[C@H](O)C1` [Example 12, (6-bromo-8-(oxetan-3-yloxy)imidazo[1,2-a]pyrazin-2-yl)((3R,3’R)-3′-hydroxy-1,4-dihydro-2H-spiro[isoquinoline-3,4′-piperidin]-1′-yl)methanone], the EC50 in assay [1] is 9.48 nM; in assay [2] (setting [3]), 159 nM; in assay [2] (setting [4]), 0.231 nM.
The corresponding values for `O=C1CCCN1CCOc1nc(Br)cn2cc(C(=O)N3CC[C@]4(Cc5ccccc5CN4)[C@H](O)C3)nc12` [Example 13, 1-(2-((6-bromo-2-((3R,3’R)-3′-hydroxy-1,4-dihydro-2H-spiro[isoquinoline-3,4′-piperidine]-1′-carbonyl)imidazo[1,2-a]pyrazin-8-yl)oxy)ethyl)pyrrolidin-2-one] are 8.16 nM, 320 nM and 0.406 nM.
The corresponding values for `O=C(c1cn2cc(Br)cc(N3CCCC3=O)c2n1)N1CC[C@]2(Cc3ccccc3CN2)[C@H](O)C1` [Example 14, 1-(6-bromo-2-((3R3’R)-3′-hydroxy-1,4-dihydro-2H-spiro[isoquinoline-3,4′-piperidine]-1′-carbonyl)imidazo[1,2-a]pyridin-8-yl)pyrrolidin-2-one] are 547 nM, 57500 nM and 100 nM.
The corresponding values for `O=C(c1cn2cc(Br)ccc2n1)N1CCC2(Cc3ccccc3CN2)C(O)C1` (stereo not drawn) [Example 16, A diastereomer of (6-bromoimidazo[1,2-a]pyridin-2-yl)(3′-hydroxy-1,4-dihydro-1′H,2H-spiro[isoquinoline-3,4′-piperidin]-1′-yl)methanone] are 50.9 nM, 1590 nM and 2.02 nM.
`O=C(c1cc2ncc(Br)cn2n1)N1CC[C@]2(Cc3ccccc3CN2)[C@H](O)C1` [Example 17, (6-bromopyrazolo[1,5-a]pyrimidin-2-yl)((3R,3’R)-3′-hydroxy-1,4-dihydro-1′H,2H-spiro[isoquinoline-3,4′-piperidin]-1′-yl)methanone]: the EC50 was 14.1 nM in assay [1], 794 nM in assay [2] (setting [3]) and 1.51 nM in assay [2] (setting [4]).
For `O=C(c1nc2cc(Cl)ccn2n1)N1CC[C@]2(Cc3ccccc3CN2)[C@H](O)C1` [Example 18], the concentration giving a half-maximal response (EC50) in assay [1] was determined as 1010 nM; in assay [2] (setting [3]), 57500 nM; in assay [2] (setting [4]), 63.1 nM.
Regarding `COCCOc1nc(Br)cn2cc(C(=O)N3CC[C@]4(Cc5ccccc5CN4)[C@H](O)C3)nc12` [Example 19, (6-bromo-8-(2-methoxyethoxy)imidazo[1,2-a]pyrazin-2-yl)((3R,3’R)-3′-hydroxy-1,4-dihydro-2H-spiro[isoquinoline-3,4′-piperidin]-1′-yl)methanone], the concentration giving a half-maximal response (EC50) in assay [1] is 10.2 nM; in assay [2] (setting [3]), 105 nM; in assay [2] (setting [4]), 0.305 nM.
As to `CC(C)(O)COc1nc(Br)cn2cc(C(=O)N3CC[C@]4(Cc5ccccc5CN4)[C@H](O)C3)nc12` [Example 20, (6-bromo-8-(2-hydroxy-2-methylpropoxy)imidazo[1,2-a]pyrazin-2-yl)((3R,3’R)-3′-hydroxy-1,4-dihydro-2H-spiro[isoquinoline-3,4′-piperidin]-1′-yl)methanone], the results for the EC50 in assay [1], in assay [2] (setting [3]) and in assay [2] (setting [4]) were 16.5 nM, 151 nM and 0.438 nM, respectively.
For the compound `N#CC1(COc2nc(Br)cn3cc(C(=O)N4CC[C@]5(Cc6ccccc6CN5)[C@H](O)C4)nc23)CC1` [Example 21, 1-(((6-bromo-2-((3R,3’R)-3′-hydroxy-1,4-dihydro-2H-spiro[isoquinoline-3,4′-piperidine]-l′-carbonyl)imidazo[1,2-a]pyrazin-8-yl)oxy)methyl)cyclopropane-1-carbonitrile], the 50% effective concentration (EC50) was 2.13 nM in assay [1] and 0.191 nM in assay [2] (setting [4]).
As to `O=C(c1cn2cc(Br)cnc2n1)N1CC[C@]2(Cc3ccccc3CN2)[C@H](O)C1` [Example 24, (6-bromoimidazo[1,2-a]pyrimidin-2-yl)((3R,3’RR)-3′-hydroxy-1,4-dihydro-1′H,2H-spiro[isoquinoline-3,4′-piperidin]-1′-yl)methanone], the results for the EC50 in assay [1], in assay [2] (setting [3]) and in assay [2] (setting [4]) were 4.09 nM, 146 nM and 0.461 nM, respectively.
For `O=C(c1cnc2ncc(Br)cn12)N1CC[C@]2(Cc3ccccc3CN2)[C@H](O)C1` [Example 25, (6-bromoimidazo[1,2-a]pyrimidin-3-yl)((3R,3’R)-3′-hydroxy-1,4-dihydro-1′H,2H-spiro[isoquinoline-3,4′-piperidin]-1′-yl)methanone], in that order: 30.2 nM, 2040 nM and 7.12 nM.
The corresponding values for `CCN1CCNc2cc(C(=O)N3CC[C@]4(Cc5ccccc5CN4)[C@H](O)C3)ccc2C1=O` [Example 26, 4-ethyl-8-((3R,3’R)-3′-hydroxy-1,4-dihydro-1′H,2H-spiro[isoquinoline-3,4′-piperidine]-1′-carbonyl)-1,2,3,4-tetrahydro-5H-1,4-benzodiazepin-5-one] are 12.3 nM, 684 nM and 1.44 nM.
The corresponding values for `CC(C)N1CCNc2cc(C(=O)N3CC[C@]4(Cc5ccccc5CN4)[C@H](O)C3)ccc2C1=O` [Example 27, 8-((3R,3’R)-3′-hydroxy-1,4-dihydro-1′H,2H-spiro[isoquinoline-3,4′-piperidine]-1′-carbonyl)-4-(propan-2-yl)-1,2,3,4-tetrahydro-5H-1,4-benzodiazepin-5-one] are 36.8 nM, 3350 nM and 3.65 nM.
Consider `COCc1cc(Br)cn2cc(C(=O)N3CC[C@]4(Cc5ccccc5CN4)[C@H](O)C3)nc12` [Example 28, (6-bromo-8-(methoxymethyl)imidazo[1,2-a]pyridin-2-yl)((3R,3’R)-3′-hydroxy-1,4-dihydro-2H-spiro[isoquinoline-3,4′-piperidin]-1′-yl)methanone], for which the EC50 in assay [1] was found to be 2.75 nM; in assay [2] (setting [4]), 0.816 nM.
For `O=C(c1cn2cc(C(F)(F)F)cc(CO)c2n1)N1CC[C@]2(Cc3ccccc3CN2)[C@H](O)C1` [Example 29, ((3R,3’R)-3′-hydroxy-1,4-dihydro-1′H,2H-spiro[isoquinoline-3,4′-piperidin]-1′-yl)[8-(hydroxymethyl)-6-(trifluoromethyl)imidazo[1,2-a]pyridin-2-yl]methanone], the EC50 is 18.4 nM in assay [1], 653 nM in assay [2] (setting [3]) and 0.428 nM in assay [2] (setting [4]).
As for `N#CCCc1cc(C(F)(F)F)cn2cc(C(=O)N3CC[C@]4(Cc5ccccc5CN4)[C@H](O)C3)nc12` [Example 34, 3-(2-((3R,3’R)-3′-hydroxy-1,4-dihydro-2H-spiro[isoquinoline-3,4′-piperidine]-1′-carbonyl)-6-(trifluoromethyl)imidazo[1,2-a]pyridin-8-yl)propanenitrile], the EC50 in assay [1] turned out to be 4 nM; in assay [2] (setting [3]), 229 nM; in assay [2] (setting [4]), 0.909 nM.
For `Cc1cc(C(F)(F)F)cn2cc(C(=O)N3CC[C@]4(Cc5ccccc5CN4)[C@H](O)C3)nc12` [Example 35, ((3R,3’R)-3′-hydroxy-1,4-dihydro-2H-spiro[isoquinoline-3,4′-piperidin]-1′-yl)(8-methyl-6-(trifluoromethyl)imidazo[1,2-a]pyridin-2-yl)methanone], in that order: 5.66 nM, 248 nM and 0.766 nM.
Turning to `N#Cc1ccc2nc(C(=O)N3CC[C@]4(Cc5ccccc5CN4)[C@H](O)C3)cn2c1` [Example 36, 2-((3R,3’R)-3′-hydroxy-1,4-dihydro-2H-spiro[isoquinoline-3,4′-piperidine]-1′-carbonyl)imidazo[1,2-a]pyridine-6-carbonitrile], the EC50 in assay [1] stood at 13.2 nM; in assay [2] (setting [3]), 2820 nM; in assay [2] (setting [4]), 6.26 nM.
On to `O=C(c1cn2cc(Cl)ccc2n1)N1CC[C@]2(Cc3ccccc3CN2)[C@H](O)C1` [Example 37, (6-chloroimidazo[1,2-a]pyridin-2-yl)((3R,3’R)-3′-hydroxy-1,4-dihydro-2H-spiro[isoquinoline-3,4′-piperidin]-1′-yl)methanone], for which the EC50 amounted to 1.61 nM in assay [1], 251 nM in assay [2] (setting [3]) and 0.757 nM in assay [2] (setting [4]).
For `O=C(c1cn2cc(F)ccc2n1)N1CC[C@]2(Cc3ccccc3CN2)[C@H](O)C1` [Example 38, (6-fluoroimidazo[1,2-a]pyridin-2-yl)((3R,3’R)-3′-hydroxy-1,4-dihydro-2H-spiro[isoquinoline-3,4′-piperidin]-1′-yl)methanone], the EC50 in assay [1] was 16.2 nM; in assay [2] (setting [3]), 2460 nM; in assay [2] (setting [4]) it was 3.84 nM.
In the case of `O=C(c1cn2cc(O)ccc2n1)N1CC[C@]2(Cc3ccccc3CN2)[C@H](O)C1` [Example 39, ((3R,3’R)-3′-hydroxy-1,4-dihydro-2H-spiro[isoquinoline-3,4′-piperidin]-1′-yl)(6-hydroxyimidazo[1,2-a]pyridin-2-yl)methanone], the EC50 stood at 571 nM in assay [1], 29200 nM in assay [2] (setting [3]) and 95.5 nM in assay [2] (setting [4]).

These data come from US12441730B2, “PRMT5 inhibitors” (Merck Sharp & Dohme LLC, priority 2019, dated 2025).
